Tests used:
human V1a receptor = target: T1, human V1a receptor (Homo sapiens, UniProt P37288); assay: Cellular in vitro assay for determining vasopressin receptor activity, V1a receptor cell line (CHO, aequorin luminescence); assay type: cell-based; conditions: for IC50: CHO cell line transfected with human V1a receptor, [Arg]-vasopressin at EC50 concentration, read-out: IC50 hV1a; for ratio IC50 hV2/hV1a: selectivity ratio IC50 hV2 / IC50 hV1a
T1 construct: expressed in transfected cells; host or cells: CHO K1 (ATCC), also stably transfected with a modified aequorin
How it was run: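 Antagonism is measured in stable CHO K1 transfectants coexpressing the Gαq-coupled receptor and a calcium-sensitive aequorin photoprotein. Agonist challenge uses [Arg]-vasopressin at EC50 after a 10-minute compound exposure; IC50 values come from the luminescence signal.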

human V2 receptor = target: T2, human V2 receptor (Homo sapiens, UniProt P30518); assay: Cellular in vitro assay for determining vasopressin receptor activity, V2 receptor cell line (CHO, CRE-luciferase); assay type: cell-based; conditions: CHO cell line transfected with human V2 receptor; [Arg8]-vasopressin at EC50 concentration, 3 hours; read-out: IC50 hV2
T2 construct: expressed in transfected cells; host or cells: CHO K1 (ATCC) expressing firefly luciferase under a CRE-responsive promoter
T2 sequence (P30518 whole entry): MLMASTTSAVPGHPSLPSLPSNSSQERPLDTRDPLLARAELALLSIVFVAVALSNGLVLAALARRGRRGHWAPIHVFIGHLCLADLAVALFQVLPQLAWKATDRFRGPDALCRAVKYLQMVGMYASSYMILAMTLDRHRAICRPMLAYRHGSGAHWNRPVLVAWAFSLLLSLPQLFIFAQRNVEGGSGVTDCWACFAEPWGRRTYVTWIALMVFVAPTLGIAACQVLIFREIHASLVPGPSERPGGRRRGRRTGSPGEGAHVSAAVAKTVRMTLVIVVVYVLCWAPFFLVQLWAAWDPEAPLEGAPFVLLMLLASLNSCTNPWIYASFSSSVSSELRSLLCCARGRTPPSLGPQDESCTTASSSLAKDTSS

T1 sequence (P37288 whole entry): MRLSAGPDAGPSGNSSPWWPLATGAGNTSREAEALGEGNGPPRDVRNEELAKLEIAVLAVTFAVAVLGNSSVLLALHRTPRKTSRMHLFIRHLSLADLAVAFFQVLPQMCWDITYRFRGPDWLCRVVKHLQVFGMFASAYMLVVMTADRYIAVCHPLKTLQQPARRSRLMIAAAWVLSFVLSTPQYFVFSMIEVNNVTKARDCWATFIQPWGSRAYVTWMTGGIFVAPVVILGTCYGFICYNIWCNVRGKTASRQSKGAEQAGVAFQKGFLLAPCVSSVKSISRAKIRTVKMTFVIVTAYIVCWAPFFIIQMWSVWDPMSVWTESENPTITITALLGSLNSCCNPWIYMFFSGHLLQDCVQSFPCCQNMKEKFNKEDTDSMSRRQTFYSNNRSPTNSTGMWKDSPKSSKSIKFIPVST

SMILES | IC50 (human V1a receptor) | ratio IC50 hV2/hV1a (human V1a receptor) | IC50 (human V2 receptor)
O=C(c1cccc(Cl)c1-n1cnc(Cn2nc(-c3ccc(Cl)cc3)n(C[C@H](O)C(F)(F)F)c2=O)n1)N1CCC[C@H]1C(F)(F)F [Example 383, 5-(4-Chlorophenyl)-2-{[1-(2-chloro-6-{[(2S)-2-(trifluoromethyl)pyrrolidin-1-yl]carbonyl}phenyl)-1H-1,2,4-triazol-3-yl]methyl}-4-[(2S)-3,3,3-trifluoro-2-hydroxypropyl]-2,4-dihydro-3H-1,2,4-triazol-3-one] | 435 nM | 17.8 | 7750 nM
O=C(c1cccc(Cl)c1-n1cnc(Cn2nc(-c3ccc(Cl)cc3)n(C[C@H](O)C(F)(F)F)c2=O)n1)N1CCC[C@@H]1C(F)(F)F [Example 384, 5-(4-Chlorophenyl)-2-{[1-(2-chloro-6-{[(2R)-2-(trifluoromethyl)pyrrolidin-1-yl]carbonyl}phenyl)-1H-1,2,4-triazol-3-yl]methyl}-4-[(2S)-3,3,3-trifluoro-2-hydroxypropyl]-2,4-dihydro-3H-1,2,4-triazol-3-one] | 111 nM | 17.9 | 2000 nM
O=C(c1cccc(Cl)c1-n1cnc(Cn2nc(-c3ccc(Cl)cc3)n(C[C@H](O)C(F)(F)F)c2=O)n1)N1CCS(=O)(=O)CC1 [Example 385, 2-[(1-{2-Chloro-6-[(1,1-dioxidothiomorpholin-4-yl)carbonyl]phenyl}-1H-1,2,4-triazol-3-yl)methyl]-5-(4-chlorophenyl)-4-[(2S)-3,3,3-trifluoro-2-hydroxypropyl]-2,4-dihydro-3H-1,2,4-triazol-3-one] | 435 nM | 22.0 | 9550 nM
CN(CC1CC1)C(=O)c1cccc(Cl)c1-n1cnc(Cn2nc(-c3ccc(Cl)cc3)n(C[C@H](O)C(F)(F)F)c2=O)n1 [Example 387, 3-Chloro-2-[3-({3-(4-chlorophenyl)-5-oxo-4-[(2S)-3,3,3-trifluoro-2-hydroxypropyl]-4,5-dihydro-1H-1,2,4-triazol-1-yl}methyl)-1H-1,2,4-triazol-1-yl]-N-(cyclopropylmethyl)-N-methylbenzamide] | 92.5 nM | 36.8 | 3400 nM
CC1(NC(=O)c2cccc(Cl)c2-n2cnc(Cn3nc(-c4ccc(Cl)cc4)n(C[C@H](O)C(F)(F)F)c3=O)n2)CC1 [Example 388, 3-Chloro-2-[3-({3-(4-chlorophenyl)-5-oxo-4-[(2S)-3,3,3-trifluoro-2-hydroxypropyl]-4,5-dihydro-1H-1,2,4-triazol-1-yl}methyl)-1H-1,2,4-triazol-1-yl]-N-(1-methylcyclopropyl)benzamide] | 7.15 nM | 216.8 | 1550 nM
NC(=O)[C@H]1CC(F)(F)CN1C(=O)c1cccc(Cl)c1-n1cnc(Cn2nc(-c3ccc(Cl)cc3)n(C[C@H](O)C(F)(F)F)c2=O)n1 [Example 391, 1-{3-Chloro-2-[3-({3-(4-chlorophenyl)-5-oxo-4-[(2S)-3,3,3-trifluoro-2-hydroxypropyl]-4,5-dihydro-1H-1,2,4-triazol-1-yl}methyl)-1H-1,2,4-triazol-1-yl]benzoyl}-4,4-difluoro-D-prolinamide] | 52 nM | 65.4 | 3400 nM
O=C(NCCC(F)(F)F)c1cccc(Cl)c1-n1cnc(Cn2nc(-c3ccc(Cl)cc3)n(C[C@H](O)C(F)(F)F)c2=O)n1 [Example 392, 3-Chloro-2-[3-({3-(4-chlorophenyl)-5-oxo-4-[(2S)-3,3,3-trifluoro-2-hydroxypropyl]-4,5-dihydro-1H-1,2,4-triazol-1-yl}methyl)-1H-1,2,4-triazol-1-yl]-N-(3,3,3-trifluoropropyl)benzamide] | 22.5 nM | 12.4 | 280 nM
